Source: patent US12195428B2, “Charged ion channel blockers and methods for use” (Nocion Therapeutics, Inc., priority 2019, dated 2025)

Assays:
[1] = molecular target: T1, NaV1.7 (Homo sapiens, UniProt Q15858); test: Nav1.7 intracellular inhibition (internal block), whole cell patch clamp; assay type: cell-based; details: % inhibition at 1 μM test concentration, compound in internal solution, 5 Hz stimulation
T1 construct: expressed in transfected cells; host or cells: unnamed tetracycline-inducible cell line, kept under hygromycin and blasticidin selection
T1 sequence (Q15858 whole entry): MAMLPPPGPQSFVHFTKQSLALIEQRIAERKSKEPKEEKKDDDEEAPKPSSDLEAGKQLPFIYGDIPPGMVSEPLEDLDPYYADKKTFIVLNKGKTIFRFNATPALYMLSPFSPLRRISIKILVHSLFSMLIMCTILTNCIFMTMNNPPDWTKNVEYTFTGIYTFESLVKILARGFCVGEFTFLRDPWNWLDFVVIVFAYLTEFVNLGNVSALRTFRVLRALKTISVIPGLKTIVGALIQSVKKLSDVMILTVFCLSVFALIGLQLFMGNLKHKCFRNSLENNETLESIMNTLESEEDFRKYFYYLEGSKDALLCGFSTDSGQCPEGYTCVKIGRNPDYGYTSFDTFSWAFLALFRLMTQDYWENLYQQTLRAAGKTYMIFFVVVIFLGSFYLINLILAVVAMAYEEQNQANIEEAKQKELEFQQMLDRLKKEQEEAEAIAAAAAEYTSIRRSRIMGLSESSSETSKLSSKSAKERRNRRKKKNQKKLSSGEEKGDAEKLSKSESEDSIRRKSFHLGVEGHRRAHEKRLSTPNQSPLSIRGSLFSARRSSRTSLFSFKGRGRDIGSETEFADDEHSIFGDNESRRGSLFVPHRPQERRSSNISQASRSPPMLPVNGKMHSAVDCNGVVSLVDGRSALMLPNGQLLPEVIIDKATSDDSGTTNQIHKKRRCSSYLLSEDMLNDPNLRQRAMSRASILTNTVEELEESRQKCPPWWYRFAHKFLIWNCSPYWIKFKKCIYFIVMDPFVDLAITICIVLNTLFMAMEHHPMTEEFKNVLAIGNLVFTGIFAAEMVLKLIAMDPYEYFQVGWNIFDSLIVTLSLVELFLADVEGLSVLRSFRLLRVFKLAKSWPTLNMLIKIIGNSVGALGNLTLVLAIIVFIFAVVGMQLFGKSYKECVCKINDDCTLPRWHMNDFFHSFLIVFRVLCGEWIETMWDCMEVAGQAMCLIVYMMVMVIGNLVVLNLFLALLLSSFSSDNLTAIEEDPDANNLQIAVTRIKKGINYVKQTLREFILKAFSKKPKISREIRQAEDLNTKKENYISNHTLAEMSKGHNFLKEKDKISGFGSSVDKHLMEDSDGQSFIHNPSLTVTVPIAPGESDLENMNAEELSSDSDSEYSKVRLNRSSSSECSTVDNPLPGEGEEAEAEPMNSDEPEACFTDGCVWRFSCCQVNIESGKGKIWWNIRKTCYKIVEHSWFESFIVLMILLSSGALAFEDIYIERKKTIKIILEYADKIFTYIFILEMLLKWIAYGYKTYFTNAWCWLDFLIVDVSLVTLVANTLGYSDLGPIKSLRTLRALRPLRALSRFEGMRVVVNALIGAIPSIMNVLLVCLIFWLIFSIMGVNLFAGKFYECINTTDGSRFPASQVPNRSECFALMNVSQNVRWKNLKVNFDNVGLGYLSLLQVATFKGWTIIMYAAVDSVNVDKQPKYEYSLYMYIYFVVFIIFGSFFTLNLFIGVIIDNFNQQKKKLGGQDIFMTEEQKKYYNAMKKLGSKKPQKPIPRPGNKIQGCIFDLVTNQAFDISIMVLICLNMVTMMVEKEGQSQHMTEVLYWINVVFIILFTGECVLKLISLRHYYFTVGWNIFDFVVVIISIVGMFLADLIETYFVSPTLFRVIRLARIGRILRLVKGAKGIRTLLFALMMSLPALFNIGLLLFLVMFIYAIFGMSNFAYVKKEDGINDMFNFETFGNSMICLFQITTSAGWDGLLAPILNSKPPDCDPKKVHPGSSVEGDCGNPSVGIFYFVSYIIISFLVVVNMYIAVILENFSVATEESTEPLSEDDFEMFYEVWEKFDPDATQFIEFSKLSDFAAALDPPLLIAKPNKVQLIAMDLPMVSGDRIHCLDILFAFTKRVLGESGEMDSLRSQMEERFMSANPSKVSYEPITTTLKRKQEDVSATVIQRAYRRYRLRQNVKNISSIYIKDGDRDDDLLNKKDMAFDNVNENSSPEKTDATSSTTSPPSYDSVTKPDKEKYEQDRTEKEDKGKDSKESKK
Protocol: (§1) Representative compounds of the invention were synthesized according to the described methods and tested for the ability to inhibit voltage-gated sodium channels.
(§2) NaV1.7 was expressed upon induction with tetracycline. Cells were cultured in DMEM containing 10% dialyzed Fetal Bovine Serum (VWR, Radnor, PA), 1% Glutamax (VWR, Radnor, PA), 1% Penicillin-Streptomycin (VWR, Radnor, PA), 100 mg/L Hygromycin (Thermo Fisher Scientific, Waltham, MA and 5 mg/L Blasticidin (Alfa Aesar, Haverhill, MA). Cells were grown and maintained at 37° C. in a humidified environment containing 10% CO2 in air. Cells were detached from the culture flask for passage and harvested using 0.05% Trypsin-EDTA (Thermo Fisher Scientific, Waltham, MA). To induce NaV1.7, cells were induced with tetracycline ([…], IBI Scientific, Peosta, IA) the day before recording and plated onto 24-well plates. Cells were washed with DPBS (VWR, Radnor, PA), trypsinized and then triturated five times in 10 mL of growth media to break apart cell aggregates. For one 24-well plate, 2 mL of cell suspension was mixed with 23 mL of fresh growth media and […] tetracycline added. 1 ml of mixed media with cells was then added to each well of a 24-well plate, with a 12 mm coverslip already placed in the bottom of the well. Cells were then incubated in 37° C. and 10% CO2 overnight.
(§3) The intracellular solution contained the following (in mM) CsCl 135, NaCl 10, EGTA 10, HEPES 10, MgCl2 2, adjusted to pH 7.2 with CsOH. The external solution was a normal Ringer solution containing (in mM) NaCl 155, HEPES 10, glucose 10, KCl 3.5, CaCl2) 1.5, MgCl2 1 adjusted to pH 7.4 with NaOH. CsCl is from Alfa Aesar, Haverhill, MA. All other chemicals are from Sigma-Aldrich, St. Louis, MO. In order to test the degree of internal block by test compounds the compounds were dissolved in internal solution at the indicated test concentration. […] In order to test the degree of external block by test compounds the compounds were dissolved in external solution at the indicated test concentration.
(§4) 18-24 hours after cells were induced with tetracycline, coverslips were placed into a chamber filled with Normal Ringer solution at room temperature and the chamber placed on a microscope. Pipettes were pulled from borosilicate glass on a P97 puller (Sutter Instrument, Novato, CA) and polished with a MF-830 Microforge (Narishige International USA, Inc, Amityville, NY) to have a resistance of 1.5-2.5 MΩ when filled with CsCl internal solution at room temperature. Healthy cells (those that are round and translucent with no visible blemishes) were chosen for seal formation. A seal was formed between the pipette and the cell, and a brief pulse of suction was used to “break in” and establish the whole-cell configuration. The membrane potential was held at −100 mV before the voltage protocol began. Only cells with series resistance between 1.5-5 MΩ were retained for analysis. The voltage protocol was as follows: Cells were held at −100 mV for 12 ms followed by a hyperpolarizing step to −105 mV for 12 ms to monitor the leak. Cells were then stepped back to −100 mV for 40 ms. Cells were then depolarized to −20 mV for 10 ms and then returned to −100 mV for 26 ms.
Once the recording was started, the voltage protocol was run at 30 second intervals for 5 minutes to get a stable baseline. This was followed by four 30-second periods of 5 Hz stimulation of the same voltage protocol separated by 1 minute of rest which was then followed by 0.33 Hz stimulation after the last train. Currents were recorded using PatchMaster software with Heka EPC10 (HEKA Electronics, Lambrecht, Germany). Only cells with inward current amplitudes at −20 mV between 400 pA and 4 nA were accepted. In addition, cells having leak currents greater than 10% of their current amplitudes were discarded. […]

[2] = PAMPA membrane permeability assay; assay type: in vitro ADME; details: pH 7.4 buffer, GIT lipid, 4 hours incubation
Protocol: The PAMPA assay (pION, Inc., Woburn MA) was used to determine the ability of compounds of the invention to cross an artificial lipid membrane by passive diffusion. Test compounds were dissolved in DMSO (10 mM) and diluted 200-fold in buffer (pION Inc., pH 7.4) to provide 50 uM stock solutions. Buffer (150 μL) was added to a UV blank plate and stock solutions (150 μL) were transferred to a UV reference plate. The blank and reference spectrum were read using a spectrophotometer. Stock solutions (200 μL) were added to the donor plate of the PAMPA sandwich plate and an accept plate painted with GIT lipid (pION Inc, 5 μL) was placed on top. Buffer (200 μL) was added to the acceptor plate and the PAMPA sandwich plate was incubated for 4 hours. Aliquots (150 μL) from the acceptor plate were added to a UV plate and read as acceptor spectrum. Aliquots (150 μL) of the donor solutions were added to a UV analysis plate and read as donor spectrum. The permeability coefficient of test compounds was calculated using PAMPA Explorer™ software (version 3.5.0.4) based on the AUC of the reference plate, the donor plate, and the acceptor plate.

[3] = molecular target: T1, NaV1.7; test: Nav1.7 extracellular inhibition (external block), whole cell patch clamp; assay type: cell-based; details: compound in external solution for 5 minutes, 5 Hz stimulation; for inhibition at 10 µM: % inhibition at 10 μM test concentration; for inhibition at 30 µM: % inhibition at 30 μM test concentration
Protocol: as §1, §2, §3, §4
Once the recording was started, the voltage protocol was run at 30 second intervals for 5 minutes to get a stable baseline. […] Currents were recorded using PatchMaster software with Heka EPC10 (HEKA Electronics, Lambrecht, Germany). […]

Compound | inhibition at 1 µM [1] [%] | PAMPA (10^−6 cm/s) [2] | inhibition at 10 µM [3] [%] | inhibition at 30 µM [3] [%]
CC[N+]1(CC(=O)Nc2c(C)cccc2C)CCCC(c2ccccc2)C1 (stereo not drawn) [Compound 1A, 1-(2-((2,6-dimethylphenyl)amino)-2-oxoethyl)-1-ethyl-3-phenylpiperidin-1-ium iodide] | > 90 |  |  | 
CC[N+]1(CC(=O)Nc2c(C)cccc2C)CCC[C@@H](c2ccccc2)C1.[I-] (stereo partly drawn) [Compound 2A] | > 90 | + (“+” (<0.1 10^−6 cm/s)) | < 30 | 
CC[N+]1(CC(=O)Nc2c(C)cccc2C)CCC[C@H](c2ccccc2)C1.[I-] (stereo partly drawn) [Compound 3A] | > 90 | + (“+” (<0.1 10^−6 cm/s)) | 30 to 70 | 
Cc1cccc(C)c1NC(=O)C[N+]1(C)CCCC(c2ccccc2)C1.[I-] (stereo not drawn) [Compound 4A] | 70 to 90 | + (“+” (<0.1 10^−6 cm/s)) |  | 
CC[N+]1(CC(=O)Nc2c(C)cccc2C)CCCCC1c1ccccc1 (stereo not drawn) [Compound 5A] | 70 to 90 | + (“+” (<0.1 10^−6 cm/s)) |  | 30 to 70
CCC[N+]1(CC(=O)Nc2c(C)cccc2C)CCCC(c2ccccc2)C1 (stereo not drawn) [Compound 6A] | > 90 | + (“+” (<0.1 10^−6 cm/s)) | 30 to 70 | 
Cc1cccc(C)c1NC(=O)C[N+]1(C)CCCCC1c1ccccc1.[I-] (stereo not drawn) [Compound 8A] | 30 to 70 | + (“+” (<0.1 10^−6 cm/s)) |  | 30 to 70
COC(=O)C[N+]1(CC(=O)Nc2c(C)cccc2C)CCCCC1c1ccccc1 (stereo not drawn) [Compound 9A] | 30 to 70 | + (“+” (<0.1 10^−6 cm/s)) |  | 
CCC[N+]1(CC(=O)Nc2c(C)cccc2C)CCCCC1c1ccccc1 (stereo not drawn) [Compound 10A] | 30 to 70 |  |  | 
